Data from BindingDB's records for doi:10.1021/jm00079a012 (Smithkline Beecham Pharmaceuticals, 1992).

Experiments:
[1] = target: Delta(24)-sterol reductase DHCR24 (Rattus norvegicus); experiment: Compound was tested for the inhibition of delta24-sterol reductase
[2] = target: Delta(24)-sterol reductase DHCR24 (Rattus norvegicus); experiment: as above; remark: listed apart in the source

Ki [1] | Ki [2] | Structure (SMILES)
7 nM | – | C[C@H](CCC(=N)N)C1CC[C@@]2(C)C3=C(CC[C@]12C)[C@@]1(C)CC[C@H](O)C(C)(C)C1CC3 (stereo partly drawn)
– | 12 nM | C[C@H](CCC(N)=[N+](C)C)C1CC[C@@]2(C)C3=C(CC[C@]12C)[C@@]1(C)CC[C@H](O)C(C)(C)C1CC3 (stereo partly drawn)
4 nM | – | CC(C)[S+](C)CC[C@@H](C)C1CCC2C3CC=C4C[C@@H](O)CC[C@]4(C)C3CC[C@@]21C (stereo partly drawn)
